The results in this text go back to US20040043403A1, “Process for determining the biological activity of epidermal growth factor receptor tyrosine kinase inhibitors” (priority 2000, published 2004).

The subject of assay [1] is NCI-H596. As to the kind of experiment: Western blot of clusterin induction in NCI-H596 cells. The class given is cell-based, human. To be noted: NCI-H596 cells (moderate levels of EGFR), 300 nM, 24 h, vs 0.03% DMSO. Here is the method: An EGFR tyrosine kinase inhibitor is dissolved in DMSO to obtain a 10 mM stock solution. The stock solution is further diluted in culture medium to final concentrations of 10 nM to 3 μM. 3.5 million cells/100 mm dish/12 ml culture medium are incubated for 24 h in 5% CO2 at 37° C. The medium is replaced with medium containing the EGFR tyrosine kinase inhibitor or DMSO. Cells are incubated for 4 to 32 h. The frozen pellets are lysed in 500 μl of lysis buffer (50 mM Tris-HCl pH 7.5, 1% Sodium Dodecyl Sulfate (SDS)). To shear genomic DNA, the cell lysates are processed in a FastPrep instrument for 20 sec at a speed rating of 4, using the green […] tubes (Bio101#6040-6010). Protein concentrations are determined according to the PIERCE-method (BCA Protein Assay, Reagent A and B). Protein concentration of lysates is adjusted to 1 μg/μl with lysis buffer. 4 parts of cell lysates are mixed with 1 part of 5 fold concentrated Laemmli buffer, the lysates are stored at -20° C. 40 μl of cell lysate is heated for 3 min to 95° C. and directly loaded on to 10% or 15% SDS-PAGE gels. The gels are run at 130 V for 90 min under standard conditions. The separated proteins are semi-dry blotted on to a PVDF membrane (Immobilon-P, Millipore #IPVH 202 00) for 70 min with 45 mA per blot. […]

Assay [2] relates to A431 cells. Kind of assay: UniGEM V cDNA array expression profile of A431 cells. The class given is cell-based, human. Particulars: 3 μM, 24 hours, RNA from Experiment 1. Here is the method: The following tissue culture cells are chosen because of their EGFR expression status (Table 1). EGFR expression is measured by Western blotting, using anti-EGFR monoclonal antibodies from Transduction Labs (Lexington, Ky.). The cell lines are obtained from the ATCC (Rockville, […].). The cells are cultured in 5% CO2 at 37° C.
20 million tissue culture cells (about 80% confluent) or 200 million WBCs are incubated for 2 or 24 h in culture medium containing 3 μM of an EGFR tyrosine kinase inhibitor or 0.03% DMSO. Total RNA from cell pellet is isolated using the RNeasy kit (Qiagen). mRNA is isolated using the oligotex mRNA purification kit (Qiagen). The quality of the obtained mRNA is tested by real time RT-PCR using beta-Actin primers (PE Applied Biosystems) with an amplicon size of 300 base pairs (bp). The total RNA is used as a reference to calculate the amount of mRNA-enrichment in the oligotex purified samples.
Probes for the UniGEM hybridization are synthesized by Incyte Genomics (Palo Alto, Calif., USA). For each probe 200 ng mRNA (50 ng/μl) is shipped in dry ice. The results are analyzed using the Expressionist Software Package provided by GeneData.
Expression profiles (UniGEM V arrays) of 4 tumor cell lines with different EGFR expression status (A431, NCI-H596, NCI-H520 and MDA-MB-468) and of WBCs upon exposure of cells to 3 μM of COMPOUND A for 2 or 24 h are analyzed. As control, cells treated with DMSO for the same time period are used. […] The cDNA array hybridization is repeated with the UniGEM 1 array using the same mRNA (Table 3).

As to `C[C@@H](Nc1ncnc2[nH]c(-c3ccc(O)cc3)cc12)c1ccccc1` [COMPOUND A, (R)-6-(4-hydroxy-phenyl)-4-[(1-phenyl-ethyl)-amino]-7H-pyrrolo[2,3-d]pyrimidine], the “Clusterin induction, Western blot (FIG. 4)” value in assay [1] is on record as “no significant clusterin induction”. For the same molecule, in assay [2], the “Gene induction, Micro Array UniGEM V: Acute phase serum amyloid A protein” value was 3.3; the “Gene induction, Micro Array UniGEM V: Cathepsin H” value is given as 2.4; the “Gene induction, Micro Array UniGEM V: Complement component 3 (C3)” value stood at 3.3; the “Gene induction, Micro Array UniGEM V: Complement cytolysis inibitor (Clusterin)” value came to 6.6. Besides, in assay [2], the “Gene induction, Micro Array UniGEM V: DNA binding protein inhibitor ID-3” value came out at 2.6; the “Gene induction, Micro Array UniGEM V: Extracellular protein S1-5” value was found to be 2.2; the “Gene induction, Micro Array UniGEM V: TGF-beta induced gene” value amounted to 2.7; the “Gene induction, Micro Array UniGEM V: TRAIL” value is on record as 4.0. The “Gene induction, Micro Array UniGEM V: VAC-beta (annexin VIII)” value in assay [2] is given as 2.2.
